Laboratory results reported in patent publication US5733913A, “6-Aryl pyrido[2,3-d] pyrimidines and naphthyridines for inhibiting protein tyrosine kinase mediated cellular proliferation” (priority 1995, dated 1998).

Columns and labels:
V-src kinase = V-src kinase assay; format: biochemical; settings: at 50 μM
Method: V-src and C-src Kinase Assays
V-src or C-src kinase is purified from baculovirus infected insect cell lysates using an antipeptide monoclonal antibody directed against the N-terminal 2-17 amino acids. The antibody, covalently linked to 0.65-μm latex beads, is added to a suspension of insect cell lysis buffer comprised of 150 mM NaCl, 50 mM Tris pH 7.5, 1 mM DTT, 1% NP-40, 2 mM EGTA, 1 mM sodium vanadate, 1 mM PMSF, 1 μg/mL each of leupeptin, pepstatin, and aprotinin. Insect cell lysate containing either the c-src or v-src protein is incubated with these beads for 3-4 hours at 4° C. with rotation. At the end of the lysate incubation, the beads are rinsed 3 times in lysis buffer, resuspended in lysis buffer containing 10% glycerol, and frozen. These latex beads are thawed, rinsed three times in assay buffer which is comprised of 40 mM tris pH 7.5, 5 mM MgCl2, and suspended in the same buffer. In a Millipore 96-well plate with a 0.65 μm polyvinylidine membrane bottom are added the reaction components: 10-μL v-src or c-src beads, 10 μL of 2.5 mg/mL poly GluTyr substrate, 5 μM ATP containing 0.2 μCi labeled ^32 P-ATP, 5μL DMSO containing inhibitors or as a solvent control, and buffer to make the final volume 125 μL. The reaction is started at room temperature by addition of the ATP and quenched 10 minutes later by the addition of 125 μL of 30% TCA, 0.1M sodium pyrophosphate for 5 minutes on ice. The plate is then filtered and the wells washed with two 250-μL aliquots of 15% TCA, 0.1M pyrophosphate. The filters are punched, counted in a liquid scintillation counter, and the data examined for inhibitory activity in comparison to a known inhibitor such as erbstatin. The method is described more fully in J. Med. Chem., 37:598-609 (1994).

C-src kinase = biological target: T1, C-src kinase (Homo sapiens, UniProt P12931); test: C-src kinase assay; format: biochemical; settings: for IC50: read-out: Inhibition of Protein Tyrosine Kinases, C-src, IC50
T1 construct: made in house; host or cells: baculovirus-infected insect cells
Outline: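 Baculovirus-expressed c-src immunopurified on antibody-coated latex beads, assayed in 40 mM Tris pH 7.5, 5 mM MgCl2 with poly GluTyr substrate and 5 μM ATP plus 32P-ATP. Reaction 10 min at room temperature, TCA-quenched, filtered; incorporated label counted by scintillation.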

[1] = biological target: T2, Human EGF receptor tyrosine kinase (Homo sapiens, UniProt P00533); test: EGF receptor tyrosine kinase assay; format: biochemical; settings: for inhibition at 50 µM: read-out: Inhibition of Protein Tyrosine Kinases, EGF, % Inhibition
T2 construct: isolated from A431 epidermoid carcinoma cells; endogenous in cells; host or cells: A431 epidermoid carcinoma cells (Triton lysate, wheat germ agglutinin eluate)
Method: Purification of Epidermal Growth Factor Receptor Tyrosine Kinase
Human EGF receptor tyrosine kinase was isolated from A431 epidermoid carcinoma cells by the following methods. Cells were grown in roller bottles in 50% Delbuco's Modified Eagle and 50% HAM F-12 nutrient media (Gibco) containing 10% fetal calf serum. Approximately 10^9 cells were lysed in two volumes of buffer containing 20 mM 2-(4N-[2-hydroxyethyl]piperazin-1-yl)ethanesulfonic acid, pH 7.4, 5 mM ethylene glycol bis(2-aminoethyl ether)N,N,N',N'-tetraacetic acid, 1% Triton X-100, 10% glycerol, 0.1 mM sodium orthovanadate, 5 mM sodium fluoride, 4 mM pyrophosphate, 4 mM benzamide, 1 mM dithiothreitol, 80 μg/mL aprotinin, 40 μg/mL leupeptin, and 1 mM phenylmethylsulfonyl fluoride. After centrifugation at 25,000×g for 10 minutes, the supernatant was equilibrated for 2 hours at 4° C. with 10 mL of wheat germ agglutinin sepharose that was previously equilibrated with 50 mM Hepes, 10% glycerol, 0.1% Triton X-100 and 150 mM NaCl, pH 7.5, (equilibration buffer). Contaminating proteins were washed from the resin with 1M NaCl in equilibration buffer, and the enzyme was eluted with 0.5M N-acetyl-1-D-glucosamine in equilibration buffer.
Determination of IC50 Values
The reaction was terminated by the addition of 2 mL of 75 mM phosphoric acid and passed through a 2.5-cm phosphocellulose filter disc to bind the peptide. The filter was washed five times with 75 mM phosphoric acid and placed in a vial along with 5 mL of scintillation fluid (Ready gel Beckman).

[2] = biological target: T3, mouse PDGF-β receptor tyrosine kinase (Mus musculus, UniProt P05622); test: PDGF receptor tyrosine kinase assay; format: biochemical; settings: for IC50: read-out: Inhibition of Protein Tyrosine Kinases, PDGF, IC50; for inhibition at 50 µM: read-out: Inhibition of Protein Tyrosine Kinases, PDGF, % Inhibition
T3 construct: a fragment of DNA that codes for the intracellular tyrosine kinase domain; made in house; host or cells: Sf9 insect cells (baculovirus), cell lysate
T3 sequence (P05622 599-961 limits assumed): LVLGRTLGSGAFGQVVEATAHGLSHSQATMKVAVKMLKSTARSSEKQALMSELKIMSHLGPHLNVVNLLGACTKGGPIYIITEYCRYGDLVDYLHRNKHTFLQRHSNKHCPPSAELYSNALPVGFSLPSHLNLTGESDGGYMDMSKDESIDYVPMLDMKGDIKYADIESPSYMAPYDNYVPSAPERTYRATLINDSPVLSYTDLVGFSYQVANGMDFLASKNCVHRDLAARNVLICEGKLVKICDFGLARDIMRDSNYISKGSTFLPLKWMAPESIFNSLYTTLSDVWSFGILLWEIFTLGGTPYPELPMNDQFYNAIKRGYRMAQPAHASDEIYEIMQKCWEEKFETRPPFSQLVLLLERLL
Outline: (§1)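 Intracellular kinase domains expressed in baculovirus-infected SF9 cells; crude lysate used as enzyme. Inhibitor preincubated 10 min at 25 °C with lysate in pH 7.0 Hepes buffer with 10 mM MnCl2 and poly(Glu-Tyr) 4:1, then γ-32P-ATP (50 μM ATP) added for 10 min at 25 °C. TCA-precipitated 32P on filters counted, no-enzyme background subtracted.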

[3] = biological target: T4, human FGF-1 (flg) receptor tyrosine kinase (Homo sapiens, UniProt P11362); test: FGF receptor tyrosine kinase assay; format: biochemical; settings: for IC50: read-out: Inhibition of Protein Tyrosine Kinases, FGF, IC50
T4 construct: a fragment of DNA that codes for the intracellular tyrosine kinase domain; made in house; host or cells: Sf9 insect cells (baculovirus), cell lysate
T4 sequence (P11362 478-767 limits assumed): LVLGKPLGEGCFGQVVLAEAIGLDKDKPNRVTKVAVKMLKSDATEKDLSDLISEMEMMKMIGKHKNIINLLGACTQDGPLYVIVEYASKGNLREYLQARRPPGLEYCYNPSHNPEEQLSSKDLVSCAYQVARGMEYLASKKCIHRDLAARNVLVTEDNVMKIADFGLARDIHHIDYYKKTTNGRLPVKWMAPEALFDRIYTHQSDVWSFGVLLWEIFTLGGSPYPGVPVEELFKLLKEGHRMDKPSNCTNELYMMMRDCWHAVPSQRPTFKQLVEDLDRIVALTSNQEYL
Outline: as §1

PDGF receptor = PDGF receptor autophosphorylation in RASMC; format: cell-based, rat; settings: PDGF-BB 30 ng/mL, read-out: Inhibition of PDGF Stimulated Receptor Auto Phosphorylation (IC50)
Method: Rat aorta smooth muscle cells (RASMC) were isolated from the thoracic aorta of rats and explanted according to the method of Ross, J. Cell. […] Cells were grown in Dulbecco's modified Eagle's medium (DMEM, Gibco) containing 10% fetal calf serum (FBS, Hyclone, Logan, Utah), 1% glutamine (Gibco) and 1% penicillin/streptomycin (Gibco). Cells were identified as smooth muscle cells by their "hill and valley" growth pattern and by fluorescent staining with a monoclonal antibody specific for SMC μ-actin (Sigma). RASMC were used between passages 5 and 20 for all experiments. Test compounds were prepared in dimethylsulfoxide (DMSO) in order to achieve consistency in the vehicle and to ensure compound solubility. Appropriate DMSO controls were simultaneously evaluated with the test compounds.
PDGF Receptor Autophosphorylation
RASMC were grown to confluency in 100 mm dishes. Growth medium was removed and replaced with serum-free medium and cells were incubated at 37° C. for an additional 24 hours. Test compounds were then added directly to the medium and cells incubated for an additional 2 hours. After 2 hours, PDGF-BB was added at a final concentration of 30 ng/mL for 5 minutes at 37° C. to stimulated autophosphorylation of the PDGF receptor. Following growth factor treatment, the medium was removed, and cells were washed with cold phosphate-buffered saline and immediately lysed with 1 mL of lysis buffer (50 mM HEPES[pH 7.5], 150 mM NaCl, 10% glycerol, 1% Triton X-100, 1 mM EDTA, 1 mMEGTA, 50 mM NaF, 1 mM sodium orthovanadate, 30 mM p-nitrophenyl phosphate, 10 mM sodium pyrophosphate, 1 mM phenylmethyl sulfonyl fluoride, 10 μg/mL aprotinin, and 10 μg/mL leupeptin). Lysates were centrifuged at 10,000×g for 10 minutes. […] Following the incubation, protein-A-sepharose beads were added for 2 hours with continuous mixing, and immune complexes bound to the beads washed 4 times with 1 mL lysis wash buffer. Immune complexes were solubilized in 30 μL of Laemmli sample buffer and electrophoresed in 4-20% SDS polyacrylamide gels. Following electrophoresis, separated proteins were transferred to nitrocellulose and immunoblotted with anti-phosphotyrosine antiserum. […] IC50 values were generated from the densitometric data.

IC50 (C-src kinase)	IC50 [2]	IC50 [3]	inhibition at 50 µM ([1]; at 50 μM)	IC50 (PDGF receptor)	Molecule	Inhibition of Protein Tyrosine Kinases, V-src, % Inhibition (V-src kinase)	Inhibition of Protein Tyrosine Kinases, EGF, % Inhibition ([1]; at 50 μM)	inhibition at 50 µM (C-src kinase; at 50 μM, read-out: Inhibition of Protein Tyrosine Kinases, C-src, % Inhibition)	inhibition at 50 µM [2]	inhibition at 50 µM ([3]; at 50 μM, read-out: Inhibition of Protein Tyrosine Kinases, FGF, % Inhibition)	IC50 ([1]; read-out: Inhibition of Protein Tyrosine Kinases, EGF, IC50)
117 nM	676 nM	75 nM		1380 nM	CN(C)CCCNc1ncc2cc(-c3c(Cl)cccc3Cl)c(NC(=O)NC(C)(C)C)nc2n1 [Example 28, 1-tert-Butyl-3-[6-(2,6-dichlorophenyl)-2-(3-dimethylamino-propylamino)-pyrido[2,3-d]pyrimidin-7-yl]-urea]						
85 nM	838 nM	72 nM		1190 nM	CC(C)(C)NC(=O)Nc1nc2nc(NCCCN3CCOCC3)ncc2cc1-c1c(Cl)cccc1Cl [Example 59, 1-tert-Butyl-3-[6-(2,6-dichlorophenyl)-2-(3-morpholin-4-yl-propylamino)-pyrido[2,3-d]pyrimidin-7-yl]-urea]						
3420 nM	5190 nM	1280 nM		5290 nM	CCN(CC)CCNc1ncc2cc(-c3c(Cl)cccc3Cl)c(NC(=O)NC(C)(C)C)nc2n1 [Example 66, 1-tert-Butyl-3-[6-(2,6-dichlorophenyl)-2-(2-diethyl-amino-ethylamino)-pyrido[2,3-d]pyrimidin-7-yl]-urea]						
36 nM	857 nM	111 nM		1630 nM	CC(C)NC(=O)Nc1nc2nc(N)ncc2cc1-c1c(Cl)cccc1Cl [Example 89, 1-[2-Amino-6-(2,6-dichlorophenyl)-pyrido[2,3-d]pyrimidin-7-yl]-3-isopropyl-urea]						
77 nM	1260 nM	128 nM		1080 nM	CCNC(=O)Nc1nc2nc(NCCCN(CC)CC)ncc2cc1-c1c(Cl)cccc1Cl [Example 112, 1-[6-(2,6-Dichlorophenyl)-2-(3-diethylamino-propyl-amino)-pyrido[2,3-d]pyrimidin-7-yl]-3-ethyl-urea]						
78 nM	1090 nM	77 nM		1100 nM	CCN(CC)CCCNc1ncc2cc(-c3c(Cl)cccc3Cl)c(NC(=O)NC(C)C)nc2n1 [Example 113, 1-[6-(2,6-Dichlorophenyl)-2-(3-diethylamino-propyl-amino)-pyrido[2,3-d]pyrimidin-7-yl]-3-isopropyl-urea]						
24 nM	2630 nM	1240 nM		5130 nM	CCNC(=O)Nc1nc2nc(NCCCN(CC)CC)ncc2cc1-c1c(C)cccc1C [Example 115]						
98 nM	804 nM	335 nM		910 nM	CCN(CC)CCCNc1ncc2cc(-c3c(C)cccc3C)c(NC(=O)NC(C)(C)C)nc2n1 [Example 116, 1-tert-Butyl-3-[2-(3-diethylamino-propylamino)-6-(2,6-dimethyl-phenyl)-pyrido[2,3-d]pyrimidin-7-yl]-urea]						

The next lines start with the molecule.

Molecule	IC50 (C-src kinase)	IC50 [2]	IC50 [3]	inhibition at 50 µM ([1]; at 50 μM)	IC50 (PDGF receptor)	Inhibition of Protein Tyrosine Kinases, V-src, % Inhibition (V-src kinase)	Inhibition of Protein Tyrosine Kinases, EGF, % Inhibition ([1]; at 50 μM)	inhibition at 50 µM (C-src kinase; at 50 μM, read-out: Inhibition of Protein Tyrosine Kinases, C-src, % Inhibition)	inhibition at 50 µM [2]	inhibition at 50 µM ([3]; at 50 μM, read-out: Inhibition of Protein Tyrosine Kinases, FGF, % Inhibition)	IC50 ([1]; read-out: Inhibition of Protein Tyrosine Kinases, EGF, IC50)
1-[2-Amino-6-(2,6-dichlorophenyl)-pyrido[2,3-d]pyrimidin-7-yl]-3-(3-morpholin-4-yl-propyl)-thiourea [Example 23]	613 nM	4510 nM	291 nM			10.2%	104.8%				
CC(C)(C)NC(=O)Nc1ncc2cc(-c3c(Cl)cccc3Cl)c(NC(=O)NC(C)(C)C)nc2n1 [Example 2, 1-tert-Butyl-3-[7-(3-tert-butylureido)-6-(2,6-dichlorophenyl)-pyrido[2,3-d]pyrimidin-2-yl]urea]	19500 nM	10200 nM	1600 nM	52.3%							
Cc1ccccc1-c1cc2cnc(NC(=O)NC(C)(C)C)nc2nc1NC(=O)NC(C)(C)C [Example 4, 1-tert-Butyl-3-[7-(3-tert-butylureido)-6-o-tolyl-pyrido[2,3-d]pyrimidin-2-yl]urea]				36.6%		3.1%		33.6%	31.9%	21.5%	
Cc1ccccc1-c1cc2cnc(N)nc2nc1NC(=O)NC(C)(C)C [Example 5, 1-[2-Amino-6-o-tolyl-pyrido[2,3-d]pyrimidin-7-yl]-3-tert-butylurea]	407 nM	466 nM	1400 nM			23.3%					928 nM
CC(=O)Nc1ncc2cc(-c3c(Cl)cccc3Cl)c(NC(C)=O)nc2n1 [Example 7, N-[2-Acetylamino-6-(2,6-dichlorophenyl)-pyrido[2,3-d]pyrimidin-7-yl]-acetamide]	2300 nM		17900 nM	25.1%		7.6%			33.5%		
Nc1ncc2cc(-c3c(Cl)cccc3Cl)c(NC3=NCCO3)nc2n1 [Example 24, 2-[2-Amino-6-(2,6-dichlorophenyl)-pyrido[2,3-d]pyrimidin-7-yl]-amino-4,5-dihydro-oxazole]	214 nM	11400 nM	7290 nM	58.3%							
CN1CCN(CCCNc2ncc3cc(-c4c(Cl)cccc4Cl)c(NC(=O)Nc4ccccc4)nc3n2)CC1 [Example 51, 1-{6-(2,6-Dichlorophenyl)-2-[3-(4-methyl-piperazin-1-yl)-propylamino]-pyrido[2,3-d]pyrimidin-7-yl}-3-phenyl-urea]	100 nM	573 nM	84 nM		365 nM						
CN(C)CCCN(C)c1ncc2cc(-c3c(Cl)cccc3Cl)c(NC(=O)NC(C)(C)C)nc2n1 [Example 69, 1-tert-Butyl-3-{6-(2,6-dichlorophenyl)-2-[(3-dimethyl-amino-propyl)-methyl-amino]-pyrido[2,3-d]pyrimidin-7-yl}-urea]	4660 nM	15600 nM	1960 nM		6460 nM						
CN(C)C=Nc1ncc2cc(-c3c(Cl)cccc3Cl)c(NC(=O)NC(C)(C)C)nc2n1 [Example 79, N'-[7-(3-tert-Butylureido)-6-(2,6-dichlorophenyl)-pyrido[2,3-d]pyrimidin-2-yl]-N,N-dimethylformamidine]		17800 nM	8090 nM	60.9%							
CC(C)(C)NC(=O)Nc1nc2nc(N)ncc2cc1-c1c(Br)cccc1Br [Example 88, 1-[2-Amino-6-(2,6-dibromo-phenyl)-pyrido[2,3-d]pyrimidin-7-yl]-3-tert-butyl-urea]	213 nM	711 nM	148 nM	34.4%							
